From patent US10457691B2, “Macrocyclic kinase inhibitors and uses thereof” (Dana-Farber Cancer Institute, Inc., priority 2014, dated 2019)

Assays:
Type in all cases: biochemical
[1] = biological target: CAMKKb (Homo sapiens, UniProt Q96RR4); assay: Protein kinase assay ([γ-32P] ATP), CAMKKb; conditions: read-out: Activity of the protein kinase when treated with compound I-1 (% control)
Experimental: (§1) In another set of experiments, the activities of the compounds described herein against various protein kinases were determined according to the methods reported in Hastie et al., Nature Protocols, 2006, 1, 968-971.
(§2) Enzyme dilution buffer. This buffer consisted of 50 mM Tris-HCl, pH 7.5, 0.1 mM EGTA, 1 mg ml^−1 bovine serum albumin and 0.1% (vol/vol) 2-mercaptoethanol.
(§3) 10× concentrated assay buffer. An assay buffer of 500 mM Tris-HCl, pH 7.5, 1 mM EGTA, and 100 mM magnesium acetate was used for assay of a wide variety of protein kinases. In some experiments, other cofactors were included (e.g., calcium ions and calmodulin were included for assay of calcium-calmodulindependent protein kinases).
(§4) 1 mM [γ-^32P] ATP. The specific activity of the [γ-^32P] ATP solution was 1×10^5 to 1×10^6 c.p.m. per nmol depending on what was needed to produce an optimal signal/noise ratio. […] To measure the concentration of ATP, a sample of such a stock solution was diluted to 20 μM, and the absorbance of the diluted sample was measured at 259 nm. The absorbance of a 20-μM stock solution of ATP at 259 nm was about 0.31. […] ATP to produce a radioactivity of 1×10^5 to 1×10^6 c.p.m. per nmol. […]
(§5) 13) Measure radioactivity in the samples by Cerenkov counting (e.g., without liquid scintillation fluid) in a liquid scintillation counter using a “^32P program”. […]

[2] = biological target: IRAK1 (Homo sapiens, UniProt P51617); assay: Protein kinase assay ([γ-32P] ATP), IRAK1; conditions: read-out: Activity of the protein kinase when treated with compound I-1 (% control)
Experimental: as §1, §2, §3, §4, §5

[3] = biological target: MST4 (Homo sapiens, UniProt Q9P289); assay: Protein kinase assay ([γ-32P] ATP), MST4; conditions: read-out: Activity of the protein kinase when treated with compound I-1 (% control)
Experimental: as §1, §2, §3, §4, §5

[4] = biological target: PLK1 (Homo sapiens, UniProt P53350); assay: Protein kinase assay ([γ-32P] ATP), PLK1; conditions: read-out: Activity of the protein kinase when treated with compound I-1 (% control)
Experimental: as §1, §2, §3, §4, §5

[5] = biological target: SmMLCK (Homo sapiens, UniProt Q15746); assay: Protein kinase assay ([γ-32P] ATP), SmMLCK; conditions: read-out: Activity of the protein kinase when treated with compound I-1 (% control)
Experimental: as §1, §2, §3, §4, §5

[6] = biological target: RIPK2 (Homo sapiens, UniProt O43353); assay: Protein kinase assay ([γ-32P] ATP), RIPK2; conditions: read-out: Activity of the protein kinase when treated with compound I-1 (% control)
Experimental: as §1, §2, §3, §4, §5

[7] = biological target: MKK2 (Homo sapiens, UniProt P36507); assay: Protein kinase assay ([γ-32P] ATP), MKK2; conditions: read-out: Activity of the protein kinase when treated with compound I-1 (% control)
Experimental: as §1, §2, §3, §4, §5

[8] = biological target: WNK1 (Homo sapiens, UniProt Q9H4A3); assay: Protein kinase assay ([γ-32P] ATP), WNK1; conditions: read-out: Activity of the protein kinase when treated with compound I-1 (% control)
Experimental: as §1, §2, §3, §4, §5

[9] = biological target: MNK1 (Homo sapiens, UniProt Q9BUB5); assay: Protein kinase assay ([γ-32P] ATP), MNK1; conditions: read-out: Activity of the protein kinase when treated with compound I-1 (% control)
Experimental: as §1, §2, §3, §4, §5

[10] = test system: CK2; assay: Protein kinase assay ([γ-32P] ATP), CK2
Experimental: as §1, §2, §3, §4, §5

[11] = biological target: YES1 (Homo sapiens, UniProt P07947); assay: Protein kinase assay ([γ-32P] ATP), YES1; conditions: read-out: Activity of the protein kinase when treated with compound I-1 (% control)
Experimental: as §1, §2, §3, §4, §5

[12] = biological target: EF2K (Homo sapiens, UniProt O00418); assay: Protein kinase assay ([γ-32P] ATP), EF2K; conditions: read-out: Activity of the protein kinase when treated with compound I-1 (% control)
Experimental: as §1, §2, §3, §4, §5

[13] = biological target: PKCz (Homo sapiens, UniProt Q05513); assay: Protein kinase assay ([γ-32P] ATP), PKCz; conditions: read-out: Activity of the protein kinase when treated with compound I-1 (% control)
Experimental: as §1, §2, §3, §4, §5

[14] = biological target: TSSK1 (Homo sapiens, UniProt Q9BXA7); assay: Protein kinase assay ([γ-32P] ATP), TSSK1; conditions: read-out: Activity of the protein kinase when treated with compound I-1 (% control)
Experimental: as §1, §2, §3, §4, §5

[15] = biological target: HIPK3 (Homo sapiens, UniProt Q9H422); assay: Protein kinase assay ([γ-32P] ATP), HIPK3; conditions: read-out: Activity of the protein kinase when treated with compound I-1 (% control)
Experimental: as §1, §2, §3, §4, §5

[16] = biological target: ZAP70 (Homo sapiens, UniProt P43403); assay: Protein kinase assay ([γ-32P] ATP), ZAP70; conditions: read-out: Activity of the protein kinase when treated with compound I-1 (% control)
Experimental: as §1, §2, §3, §4, §5

[17] = biological target: PRK2 (Homo sapiens, UniProt Q16513); assay: Protein kinase assay ([γ-32P] ATP), PRK2; conditions: read-out: Activity of the protein kinase when treated with compound I-1 (% control)
Experimental: as §1, §2, §3, §4, §5

[18] = 0.1 μM of compound I-1, DMSO control = 100%
[19] = 1 μM of compound I-1, DMSO control = 100%

Sequence of CAMKKb (Q96RR4 whole entry): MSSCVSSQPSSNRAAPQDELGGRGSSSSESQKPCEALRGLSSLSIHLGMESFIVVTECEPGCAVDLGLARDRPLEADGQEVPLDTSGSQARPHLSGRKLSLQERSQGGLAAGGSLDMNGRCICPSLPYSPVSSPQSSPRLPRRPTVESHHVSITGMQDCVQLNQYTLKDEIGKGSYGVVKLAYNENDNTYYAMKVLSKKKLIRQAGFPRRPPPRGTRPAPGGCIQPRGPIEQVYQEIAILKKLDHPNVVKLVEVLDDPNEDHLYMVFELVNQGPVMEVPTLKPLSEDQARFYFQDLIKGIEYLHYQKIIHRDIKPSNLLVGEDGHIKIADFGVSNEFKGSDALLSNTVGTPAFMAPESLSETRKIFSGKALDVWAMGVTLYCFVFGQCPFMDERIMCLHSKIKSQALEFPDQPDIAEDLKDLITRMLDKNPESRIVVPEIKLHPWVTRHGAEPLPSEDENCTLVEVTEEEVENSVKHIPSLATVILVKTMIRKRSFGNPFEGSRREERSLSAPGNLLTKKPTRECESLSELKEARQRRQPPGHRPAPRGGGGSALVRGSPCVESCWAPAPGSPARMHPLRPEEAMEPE
Sequence of MKK2 (P36507 whole entry): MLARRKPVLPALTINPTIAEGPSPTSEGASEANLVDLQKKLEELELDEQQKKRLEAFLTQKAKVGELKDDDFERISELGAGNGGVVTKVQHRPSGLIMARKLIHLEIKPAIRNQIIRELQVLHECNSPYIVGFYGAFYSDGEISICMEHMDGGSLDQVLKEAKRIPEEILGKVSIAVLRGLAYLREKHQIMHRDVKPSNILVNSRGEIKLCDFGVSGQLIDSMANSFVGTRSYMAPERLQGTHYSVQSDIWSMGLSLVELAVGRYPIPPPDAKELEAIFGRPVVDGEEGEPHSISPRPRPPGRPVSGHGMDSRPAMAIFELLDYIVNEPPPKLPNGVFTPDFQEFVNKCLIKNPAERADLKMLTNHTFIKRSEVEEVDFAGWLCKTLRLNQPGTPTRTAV
Sequence of WNK1 (Q9H4A3 whole entry): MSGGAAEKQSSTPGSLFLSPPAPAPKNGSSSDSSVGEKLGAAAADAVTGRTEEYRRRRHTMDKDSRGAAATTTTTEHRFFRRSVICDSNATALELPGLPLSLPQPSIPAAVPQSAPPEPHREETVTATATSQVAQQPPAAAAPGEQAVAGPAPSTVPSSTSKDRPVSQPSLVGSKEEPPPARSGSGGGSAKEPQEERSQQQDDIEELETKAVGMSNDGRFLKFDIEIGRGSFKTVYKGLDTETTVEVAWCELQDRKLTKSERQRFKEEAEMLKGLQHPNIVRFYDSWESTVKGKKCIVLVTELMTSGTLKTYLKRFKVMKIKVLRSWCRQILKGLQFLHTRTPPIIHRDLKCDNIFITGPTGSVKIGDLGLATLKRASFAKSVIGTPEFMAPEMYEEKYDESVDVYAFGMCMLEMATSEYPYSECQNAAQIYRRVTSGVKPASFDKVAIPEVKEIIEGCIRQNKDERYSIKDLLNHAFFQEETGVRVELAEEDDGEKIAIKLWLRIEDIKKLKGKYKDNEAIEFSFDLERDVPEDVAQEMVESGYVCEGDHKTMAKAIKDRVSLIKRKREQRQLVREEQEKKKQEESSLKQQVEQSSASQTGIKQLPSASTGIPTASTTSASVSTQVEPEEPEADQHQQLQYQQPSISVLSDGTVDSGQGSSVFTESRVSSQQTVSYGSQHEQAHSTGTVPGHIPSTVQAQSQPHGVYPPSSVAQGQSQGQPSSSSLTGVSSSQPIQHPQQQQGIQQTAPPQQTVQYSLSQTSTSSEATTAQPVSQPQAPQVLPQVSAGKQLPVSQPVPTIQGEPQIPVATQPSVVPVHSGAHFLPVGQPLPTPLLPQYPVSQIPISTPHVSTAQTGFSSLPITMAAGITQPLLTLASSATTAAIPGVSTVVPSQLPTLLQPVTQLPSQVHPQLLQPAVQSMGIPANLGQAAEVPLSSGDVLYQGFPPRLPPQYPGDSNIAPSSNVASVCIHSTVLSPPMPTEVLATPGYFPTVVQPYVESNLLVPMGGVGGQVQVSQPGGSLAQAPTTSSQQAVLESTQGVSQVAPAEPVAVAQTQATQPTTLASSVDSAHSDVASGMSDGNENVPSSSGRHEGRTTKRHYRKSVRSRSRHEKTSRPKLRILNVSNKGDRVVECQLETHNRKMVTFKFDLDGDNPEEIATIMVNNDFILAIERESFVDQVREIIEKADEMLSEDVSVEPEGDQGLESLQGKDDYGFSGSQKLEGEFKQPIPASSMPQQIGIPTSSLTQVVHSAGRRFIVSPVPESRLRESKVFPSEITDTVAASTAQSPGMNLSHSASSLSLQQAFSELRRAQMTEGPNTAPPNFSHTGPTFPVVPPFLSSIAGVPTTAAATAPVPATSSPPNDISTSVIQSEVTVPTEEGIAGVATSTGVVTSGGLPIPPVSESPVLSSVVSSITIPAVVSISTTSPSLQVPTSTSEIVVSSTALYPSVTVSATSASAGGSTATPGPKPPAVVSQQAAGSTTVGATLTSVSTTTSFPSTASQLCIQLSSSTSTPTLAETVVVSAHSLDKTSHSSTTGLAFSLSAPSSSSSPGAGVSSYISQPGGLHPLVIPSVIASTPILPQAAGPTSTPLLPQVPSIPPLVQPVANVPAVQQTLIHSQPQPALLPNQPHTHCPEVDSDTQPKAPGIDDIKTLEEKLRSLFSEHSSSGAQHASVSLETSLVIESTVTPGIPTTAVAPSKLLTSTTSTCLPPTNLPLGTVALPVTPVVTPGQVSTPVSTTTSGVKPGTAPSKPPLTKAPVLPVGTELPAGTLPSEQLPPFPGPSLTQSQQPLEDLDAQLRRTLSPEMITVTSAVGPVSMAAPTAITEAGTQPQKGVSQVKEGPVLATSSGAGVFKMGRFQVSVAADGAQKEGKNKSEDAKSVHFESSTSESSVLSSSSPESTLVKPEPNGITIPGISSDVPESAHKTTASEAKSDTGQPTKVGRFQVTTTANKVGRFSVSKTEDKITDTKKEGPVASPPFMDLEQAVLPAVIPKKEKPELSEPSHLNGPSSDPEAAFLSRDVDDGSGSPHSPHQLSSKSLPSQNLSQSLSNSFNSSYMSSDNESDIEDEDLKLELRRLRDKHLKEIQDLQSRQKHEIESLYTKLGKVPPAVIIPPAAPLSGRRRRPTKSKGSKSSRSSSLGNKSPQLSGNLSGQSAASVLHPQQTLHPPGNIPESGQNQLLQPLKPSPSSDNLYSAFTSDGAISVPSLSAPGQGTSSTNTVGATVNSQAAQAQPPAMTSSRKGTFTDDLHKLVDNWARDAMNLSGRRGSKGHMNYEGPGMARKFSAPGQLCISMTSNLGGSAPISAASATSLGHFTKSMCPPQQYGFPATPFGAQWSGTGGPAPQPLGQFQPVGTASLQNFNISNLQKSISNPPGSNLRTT
Sequence of EF2K (O00418 whole entry): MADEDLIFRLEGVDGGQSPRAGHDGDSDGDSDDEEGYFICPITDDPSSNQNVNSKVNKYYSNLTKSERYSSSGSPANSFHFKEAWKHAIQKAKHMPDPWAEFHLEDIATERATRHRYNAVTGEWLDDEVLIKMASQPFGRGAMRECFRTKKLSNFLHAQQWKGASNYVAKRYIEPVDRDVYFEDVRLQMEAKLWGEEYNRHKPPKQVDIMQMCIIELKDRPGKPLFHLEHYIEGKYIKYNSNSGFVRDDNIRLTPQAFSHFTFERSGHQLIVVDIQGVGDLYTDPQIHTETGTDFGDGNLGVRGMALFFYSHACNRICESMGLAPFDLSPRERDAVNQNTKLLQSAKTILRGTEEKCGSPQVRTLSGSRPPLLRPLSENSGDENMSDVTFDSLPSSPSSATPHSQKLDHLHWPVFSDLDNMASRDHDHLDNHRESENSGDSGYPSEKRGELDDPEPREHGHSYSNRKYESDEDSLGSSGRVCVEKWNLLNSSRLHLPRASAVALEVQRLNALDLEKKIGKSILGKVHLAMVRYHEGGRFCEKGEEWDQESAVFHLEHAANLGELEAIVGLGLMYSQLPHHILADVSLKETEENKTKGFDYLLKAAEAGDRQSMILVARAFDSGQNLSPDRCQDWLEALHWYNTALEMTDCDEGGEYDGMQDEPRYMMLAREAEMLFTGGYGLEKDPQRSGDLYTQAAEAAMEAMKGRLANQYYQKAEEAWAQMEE
Sequence of ZAP70 (P43403 whole entry): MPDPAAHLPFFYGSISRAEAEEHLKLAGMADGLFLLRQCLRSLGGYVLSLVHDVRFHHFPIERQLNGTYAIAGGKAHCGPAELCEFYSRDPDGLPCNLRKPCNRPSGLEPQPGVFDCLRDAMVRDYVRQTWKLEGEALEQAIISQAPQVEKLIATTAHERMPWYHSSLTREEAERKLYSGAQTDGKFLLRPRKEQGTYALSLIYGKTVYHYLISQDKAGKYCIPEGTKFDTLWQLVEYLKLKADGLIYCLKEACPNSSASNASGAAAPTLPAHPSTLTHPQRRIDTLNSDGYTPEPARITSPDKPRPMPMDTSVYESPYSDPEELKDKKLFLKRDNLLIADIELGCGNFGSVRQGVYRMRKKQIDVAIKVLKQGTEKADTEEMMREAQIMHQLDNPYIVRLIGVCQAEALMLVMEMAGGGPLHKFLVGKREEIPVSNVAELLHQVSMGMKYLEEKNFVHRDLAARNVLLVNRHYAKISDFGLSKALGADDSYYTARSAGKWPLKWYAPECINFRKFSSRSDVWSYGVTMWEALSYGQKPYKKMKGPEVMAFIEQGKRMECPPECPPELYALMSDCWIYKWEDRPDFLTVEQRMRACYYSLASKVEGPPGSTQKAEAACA
Sequence of TSSK1 (Q9BXA7 whole entry, species assumed): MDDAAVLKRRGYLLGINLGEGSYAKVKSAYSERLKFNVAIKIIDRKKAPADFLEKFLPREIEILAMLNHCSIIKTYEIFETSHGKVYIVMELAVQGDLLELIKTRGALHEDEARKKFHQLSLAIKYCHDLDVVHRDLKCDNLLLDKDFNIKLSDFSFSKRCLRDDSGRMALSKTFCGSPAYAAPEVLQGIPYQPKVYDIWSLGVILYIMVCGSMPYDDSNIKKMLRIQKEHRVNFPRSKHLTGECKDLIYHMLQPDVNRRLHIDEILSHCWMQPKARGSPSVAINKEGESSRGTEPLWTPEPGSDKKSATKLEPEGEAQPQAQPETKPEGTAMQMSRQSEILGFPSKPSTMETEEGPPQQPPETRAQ

In the case of `Cc1cccc(C)c1NC(=O)N1C/C=C\COc2cccc(c2)Nc2cc1ncn2` [Compound I-1], the remaining activity at 0.1 µM [1, 18] is reported as 101%, the remaining activity at 1 µM [1, 19] is reported as 88% and the remaining activity at 0.1 µM [2, 18] is reported as 105%. It also gave a remaining activity at 1 µM [2, 19] of 83%, a remaining activity at 0.1 µM [3, 18] of 133% and a remaining activity at 1 µM [3, 19] of 81%. For the same molecule, the remaining activity at 0.1 µM [4, 18] was 104%, the remaining activity at 1 µM [4, 19] was 101% and the remaining activity at 0.1 µM [5, 18] was 91%. It also gave a remaining activity at 1 µM [5, 19] of 85%, a remaining activity at 0.1 µM [6, 18] of 33% and a remaining activity at 1 µM [6, 19] of 5%. It also gave a remaining activity at 0.1 µM [7, 18] of 119%, a remaining activity at 1 µM [7, 19] of 77% and a remaining activity at 0.1 µM [8, 18] of 102%. For the same molecule, the remaining activity at 1 µM [8, 19] was 85%, the remaining activity at 0.1 µM [9, 18] was 105% and the remaining activity at 1 µM [9, 19] was 90%. The “Activity of the protein kinase when treated with compound I-1 (% control)” value [10, 18] was 97 % control, the “Activity of the protein kinase when treated with compound I-1 (% control)” value [10, 19] was 91 % control and the remaining activity at 0.1 µM [11, 18] was 10%. It also gave a remaining activity at 1 µM [11, 19] of 15%, a remaining activity at 0.1 µM [12, 18] of 103% and a remaining activity at 1 µM [12, 19] of 83%. For the same molecule, the remaining activity at 0.1 µM [13, 18] was 111%, the remaining activity at 1 µM [13, 19] was 82% and the remaining activity at 0.1 µM [14, 18] was 83%. For the same molecule, the remaining activity at 1 µM [14, 19] was 85%, the remaining activity at 0.1 µM [15, 18] was 89% and the remaining activity at 1 µM [15, 19] was 81%. It also gave a remaining activity at 0.1 µM [16, 18] of 90%, a remaining activity at 1 µM [16, 19] of 98% and a remaining activity at 0.1 µM [17, 18] of 112%. For the same molecule, the remaining activity at 1 µM [17, 19] was 87%.
